This is an account of results in patent publication US12558428B2, “Heterobifunctional compounds and their use in treating disease” (Halda Therapeutics OpCo, Inc., priority 2024, dated 2026).

Type in all cases: cell-based
Assay [1] deals with T-Rex 293 cells having increased expression of estrogen receptor alpha protein. Briefly: Cellular growth inhibition assay, T-Rex 293 cells, (+) doxycycline. Conditions: 72 hours. In short, it runs like this: (§1)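 Viability read-out was CellTiter-Glo 2.0 luminescence after 72 h compound exposure, normalized to zero luminescence and fitted by four-parameter regression to give GI50. Cells were an ERα-inducible T-Rex 293 clone cultured with or without 3 ng/mL doxycycline in charcoal-stripped, phenol red-free medium.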

For assay [2], the system named is T-Rex 293 cells lacking increased expression of estrogen receptor alpha protein. The assay can be described thus: Cellular growth inhibition assay, T-Rex 293 cells, (−) doxycycline. Conditions: 72 hours. In short, it runs like this: as §1
Assay [3] concerns MCF7 cells (ATCC #HTB-22). Briefly: Cellular growth inhibition assay, MCF7 cells purchased from ATCC. The conditions noted are these: Table 8-A, MCF7 cells purchased from ATCC, six days, CellTiter-Glo, read-out: GI50. In short, it runs like this: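 MCF7 cells in RPMI 1640 with 10% FBS and 0.2 U/ml insulin, seeded at 1,500 cells/well (ATCC) or 225 cells/well (ECACC). Compounds added 24 h later, then 6 days at 37° C. Viability by CellTiter-Glo 2.0 luminescence. GI50 from four-parameter fit.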
A general note: ATP-based viability assays read luminescence as a measure of living cells.

Where [4] appears, read: T-REx-293, 72 h, T-Rex 293 cells with doxycycline-induced ERα expression, CellTiter-Glo 2.0, read-out: (+) Dox TRex ERa (GI50).
[5] abbreviates: T-REx-293, 72 h, T-Rex 293 cells without doxycycline, CellTiter-Glo 2.0, read-out: (−) Dox TRex ERa (GI50).

Like-named read-outs stand apart in the source and are kept apart here.

The term GI50 denotes the concentration that inhibits growth by half. `Cn1cc(-c2cc(C(C)(C)O)ccc2Oc2ccc(N3CC(CC4CCN(c5ccc(C(=O)c6c(-c7ccc(O)cc7)sc7cc(O)ccc67)cc5)CC4)C3)cc2)c2cc[nH]c2c1=O` [I-22, 4-(2-(4-(3-((1-(4-(6-hydroxy-2-(4-hydroxyphenyl)benzo[b]thiophene-3-carbonyl)phenyl)piperidin-4-yl)methyl)azetidin-1-yl)phenoxy)-5-(2-hydroxy-propan-2-yl)phenyl)-6-methyl-1,6-dihydro-7H-pyrrolo[2,3-c]pyridin-7-one]: the GI50 in assay [1] (setting [4]) was less than 50 nM; in assay [2] (setting [5]), 50 to 500 nM; in assay [3] (Homo sapiens, MCF7, 144 h) it was less than 50 nM.
Regarding `Cc1sc2c(c1C)C(c1ccc(OCCOCCOc3cc(F)c([C@@H]4c5[nH]c6ccccc6c5C[C@@H](C)N4CC(C)(C)F)c(F)c3)cc1)=N[C@@H](C)c1nnc(C)n1-2` [I-23, (S)-4-(4-(2-(2-(3,5-difluoro-4-((1R,3R)-2-(2-fluoro-2-methylpropyl)-3-methyl-2,3,4,9-tetrahydro-1H-pyrido[3,4-b]indol-1-yl)phenoxy)ethoxy)ethoxy)phenyl)-2,3,6,9-tetramethyl-6H-thieno[3,2-f][1,2,4]triazolo[4,3-a][1,4]diazepine], the GI50 was 500 to 2500 nM in assay [1] (setting [4]); 500 to 2500 nM in assay [2] (setting [5]); 50 to 500 nM in assay [3] (Homo sapiens, MCF7, 144 h).
Take `Cn1cc(-c2cc(C(C)(C)O)ccc2Oc2ccc(CC3CC4(CCN(CCOc5ccc(C(=O)c6c(-c7ccc(O)cc7)sc7cc(O)ccc67)cc5)CC4)C3)cc2)c2cc[nH]c2c1=O` [I-24, 4-(2-(4-((7-(2-(4-(6-hydroxy-2-(4-hydroxyphenyl)benzo[b]thiophene-3-carbonyl)phenoxy)ethyl)-7-azaspiro[3.5]nonan-2-yl)methyl)phenoxy) -5-(2-hydroxypropan-2-yl)phenyl)-6-methyl-1,6-dihydro-7H-pyrrolo[2,3-c]pyridin-7-one]: the GI50 in assay [1] (setting [4]) was 50 to 500 nM; in assay [2] (setting [5]) it was 50 to 500 nM; in assay [3] (Homo sapiens, MCF7, 144 h), less than 50 nM.
With `Cc1sc2c(c1C)C(c1ccc(OCCOCCOCCOc3cc(F)c([C@@H]4c5[nH]c6ccccc6c5C[C@@H](C)N4CC(C)(C)F)c(F)c3)cc1)=N[C@@H](C)c1nnc(C)n1-2` [I-25, (S)-4-(4-(2-(2-(2-(3,5-difluoro-4-((1R,3R)-2-(2-fluoro-2-methylpropyl)-3-methyl-2,3,4,9-tetrahydro-1H-pyrido[3,4-b]indol-1-yl)phenoxy)ethoxy)ethoxy)ethoxy)phenyl)-2,3,6,9-tetramethyl-6H-thieno[3,2-f][1,2,4]triazolo[4,3-a][1,4]diazepine], the GI50 in assay [1] (setting [4]) is 50 to 500 nM; in assay [2] (setting [5]), 50 to 500 nM; in assay [3] (Homo sapiens, MCF7, 144 h), less than 50 nM.
On to `Cc1sc2c(c1C)C(c1ccc(N3CCC(CN4CCN(c5ccc([C@@H]6c7ccc8n[nH]cc8c7C[C@@H](C)N6CC(F)(F)F)nc5)CC4)CC3)cc1)=N[C@@H](C)c1nnc(C)n1-2` [I-27, (S)-2,3,6,9-tetramethyl-4-(4-(4-((4-(6-((6S,8R)-8-methyl-7-(2,2,2-trifluoroethyl)-6,7,8,9-tetrahydro-2H-pyrazolo[4,3-f]isoquinolin-6-yl)pyridin-3-yl)piperazin-1-yl)methyl)piperidin-1-yl)phenyl)-6H-thieno[3,2-f][1,2,4]triazolo[4,3-a][1,4]diazepine], for which the GI50 in assay [1] (setting [4]) was less than 50 nM; in assay [2] (setting [5]), 500 to 2500 nM; in assay [3] (Homo sapiens, MCF7, 144 h), 50 to 500 nM.
For `Cc1sc2c(c1C)C(c1ccc(Cl)cc1)=N[C@@H](CC(=O)NCCCCOCCOc1ccc(C(=O)c3c(-c4ccc(Br)cc4)sc4cc(O)ccc34)cc1)c1nnc(C)n1-2` [I-28, (S)—N-(4-(2-(4-(2-(4-bromophenyl)-6-hydroxybenzo[b]thiophene-3-carbonyl)phenoxy)ethoxy)butyl)-2-(4-(4-chlorophenyl)-2,3,9-trimethyl-6H-thieno[3,2-f][1,2,4]triazolo[4,3-a][1,4]diazepin-6-yl)acetamide], the GI50 in assay [1] (setting [4]) fell in the range of 50 to 500 nM; in assay [2] (setting [5]), 500 to 2500 nM; in assay [3] (Homo sapiens, MCF7, 144 h) it was 50 to 500 nM.
With `Cc1sc2c(c1C)C(c1ccc(C#CC3CC4(CCN(CCOc5ccc(C(=O)c6c(-c7ccc(O)cc7)sc7cc(O)ccc67)cc5)CC4)C3)cc1)=N[C@@H](C)c1nnc(C)n1-2` [I-29, (S)-(6-hydroxy-2-(4-hydroxyphenyl)benzo[b]thiophen-3-yl)(4-(2-(2-((4-(2,3,6,9-tetramethyl-6H-thieno[3,2-f][1,2,4]triazolo[4,3-a][1,4]diazepin-4-yl)phenyl)ethynyl)-7-azaspiro[3.5]nonan-7-yl)ethoxy)phenyl)methanone], the GI50 in assay [1] (setting [4]) is less than 50 nM; in assay [2] (setting [5]), less than 50 nM; in assay [3] (Homo sapiens, MCF7, 144 h), less than 50 nM.
`Cc1sc2c(c1C)C(c1ccc(CC3CC4(CCN(CCOc5ccc(C(=O)c6c(-c7ccc(O)cc7)sc7cc(O)ccc67)cc5)CC4)C3)cc1)=N[C@@H](Cc1ncco1)c1nnc(C)n1-2` [I-30, (S)-(6-hydroxy-2-(4-hydroxyphenyl)benzo[b]thiophen-3-yl)(4-(2-(2-(4-(2,3,9-trimethyl-6-(oxazol-2-ylmethyl)-6H-thieno[3,2-f][1,2,4]triazolo[4,3-a][1,4]diazepin-4-yl)benzyl)-7-azaspiro[3.5]nonan-7-yl)ethoxy)phenyl)methanone]: the GI50 in assay [1] (setting [4]) was less than 50 nM; in assay [2] (setting [5]) it was less than 50 nM; in assay [3] (Homo sapiens, MCF7, 144 h), less than 50 nM.
With `Cn1cc(-c2cc(C(C)(C)O)ccc2Oc2ccc(C#CC3CC4(CCN(CCOc5ccc(C(=O)c6c(-c7ccc(O)cc7)sc7cc(O)ccc67)cc5)CC4)C3)cc2)c2cc[nH]c2c1=O` [I-31, 4-(2-(4-((7-(2-(4-(6-hydroxy-2-(4-hydroxyphenyl)benzo [b]thiophene-3-carbonyl)phenoxy)ethyl)-7-azaspiro[3.5]nonan-2-yl)ethynyl)phenoxy)-5-(2-hydroxypropan-2-yl)phenyl)-6-methyl-1,6-dihydro-7H-pyrrolo[2,3-c]pyridin-7-one], the GI50 in assay [1] (setting [4]) is less than 50 nM; in assay [2] (setting [5]) it was 50 to 500 nM; in assay [3] (Homo sapiens, MCF7, 144 h) it was less than 50 nM.
Regarding `Cc1sc2c(c1C)C(c1ccc(OCCOCCCN3CC[C@H](Oc4ccc(C5=C(c6ccc(Cl)cc6Cl)CCCc6cc(C(=O)O)ccc65)cc4)C3)cc1)=N[C@@H](C)c1nnc(C)n1-2` [I-32, 8-(2,4-dichlorophenyl)-9-(4-(((S)-1-(3-(2-(4-((S)-2,3,6,9-tetramethyl-6H-thieno[3,2-f][1,2,4]triazolo[4,3-a][1,4]diazepin-4-yl)phenoxy)ethoxy)propyl)pyrrolidin-3-yl)oxy)phenyl)-6,7-dihydro-5H-benzo[7]annulene-3-carboxylic acid], the GI50 in assay [1] (setting [4]) is less than 50 nM; in assay [2] (setting [5]), 500 to 2500 nM; in assay [3] (Homo sapiens, MCF7, 144 h) it was 50 to 500 nM.
The matching figures for `Cc1sc2c(c1C)C(c1ccc(OCCOCCOCCCN3CC(Nc4ccc([C@@H]5c6ccc7n[nH]cc7c6C[C@@H](C)N5CC(F)(F)F)nc4)C3)cc1)=N[C@@H](C)c1nnc(C)n1-2` [I-33, 6-((6S,8R)-8-methyl-7-(2,2,2-trifluoroethyl)-6,7,8,9-tetrahydro-2H-pyrazolo[4,3-f]isoquinolin-6-yl)-N-(1-(3-(2-(2-(4-((S)-2,3,6,9-tetramethyl-6H-thieno[3,2-f][1,2,4]triazolo[4,3-a][1,4]diazepin-4-yl)phenoxy)ethoxy)ethoxy)propyl)azetidin-3-yl)pyridin-3-amine]: less than 50 nM, more than 2500 nM and less than 50 nM.
`CCN(Cc1ccc(CCN2CC[C@@H](OCCOCCOc3ccc(C4=N[C@@H](C)c5nnc(C)n5-c5sc(C)c(C)c54)cc3)C2)cc1)c1cc(OC)ccc1C1CCc2cc(O)ccc2C1` (stereo partly drawn) [I-34a, (R)-6-(2-(ethyl(4-(2-((R)-3-(2-(2-(4-((S)-2,3,6,9-tetramethyl-6H-thieno[3,2-f][1,2,4]triazolo[4,3-a][1,4]diazepin-4-yl)phenoxy)ethoxy)ethoxy)pyrrolidin-1-yl)ethyl)benzyl)amino)-4-methoxyphenyl)-5,6,7,8-tetrahydronaphthalen-2-ol]: the GI50 fell in the range of 50 to 500 nM in assay [1] (T-REx-293, 72 h, Table 7-A, T-Rex 293 cells with doxycycline (increased ERα expression), CellTiter-Glo, read-out: (+) Dox GI50); 500 to 2500 nM in assay [2] (T-REx-293, 72 h, Table 7-A, T-Rex 293 cells without doxycycline (lacking increased ERα expression), CellTiter-Glo, read-out: (−) Dox GI50); 50 to 500 nM in assay [3] (Homo sapiens, MCF7, 144 h).
As to `CCN(Cc1ccc(CCN2CC[C@@H](OCCOCCOc3ccc(C4=N[C@@H](C)c5nnc(C)n5-c5sc(C)c(C)c54)cc3)C2)cc1)c1cc(OC)ccc1C1CCc2cc(O)ccc2C1` (stereo partly drawn) [I-34b, (S)-6-(2-(ethyl(4-(2-((R)-3-(2-(2-(4-((S)-2,3,6,9-tetramethyl-6H-thieno[3,2-f][1,2,4]triazolo[4,3-a][1,4]diazepin-4-yl)phenoxy)ethoxy)ethoxy)pyrrolidin-1-yl)ethyl)benzyl)amino)-4-methoxyphenyl)-5,6,7,8-tetrahydronaphthalen-2-ol], the GI50 in assay [1] (Table 7-A, T-Rex 293 cells with doxycycline (increased ERα expression), CellTiter-Glo, read-out: (+) Dox GI50) was less than 50 nM; in assay [2] (Table 7-A, T-Rex 293 cells without doxycycline (lacking increased ERα expression), CellTiter-Glo, read-out: (−) Dox GI50), 500 to 2500 nM; in assay [3], 50 to 500 nM.
